Where two headings read alike, the source gives them in different places.

3 compounds from US20230348453A1, “HALOGENATED-HETEROARYL AND OTHER HETEROCYCLIC KINASE INHIBITORS, AND USES THEREOF” (iOmx Therapeutics AG, priority 2020, published 2023) can be followed below.

The subject of one data set is PANC1 cells. Description: TNF-sensitised cell viability assay (CellTiter-Glo). The following applies: Homo sapiens, PANC-1, read-out: PANC IC50 (at 100 ng/ml rHuNF).
In data set [1] the test system is MC38 murine tumour cell line. The description is as above. The conditions noted are these: Mus musculus; for IC50: MC-38, read-out: MC38 IC50 (at 100 ng/mL rMuTNF).
For data set [2], the target named is T1, SIK3 (Homo sapiens (Human), UniProt Q9Y2K2). Description: SIK3 kinase inhibition (IC50).
Data set [3] deals with T2, SIK2 (Homo sapiens (Human), UniProt Q9H0K1). The data set can be described thus: SIK2 kinase inhibition (IC50). The conditions noted are these: read-out: Kinase: IC50 (nM) SIK2.
Another data set relates to HCT116 cells. The data set can be described thus: TNF-sensitised cell viability assay (CellTiter-Glo). The following applies: Homo sapiens, HCT-116, read-out: HCT116 IC50 (at 10 ng/ml rHuTNF). Background: In ATP-based viability assays light output follows the ATP content of the culture.
For the next data set, the target named is ABL1 wt (Homo sapiens (Human), UniProt P00519). Type of data set: biochemical.
The next data set deals with SRC (GST-HIS-tag) (Homo sapiens (Human), UniProt P12931). The data set is classed as biochemical.
The target of data set [4] is T2, SIK2. The following applies: read-out: SIK2 IC50.
The target of data set [5] is T1, SIK3.
For data set [6] the following is noted: female, C57BL/6, mouse, in vivo, 7 days.
Data set [7] is described as follows: Human hepatocyte stability. The following applies: human, hepatocytes. The data set is classed as in vitro ADME.
The nature of data set [8]: Human plasma-protein binding.
Data set [9] can be described thus: MDCK wild type permeability/efflux. The conditions noted are these: dog.
The subject of data set [10] is NFKB activity in MC38 cells. The data set can be described thus: TNF-induced NFKB activity (NFKB-dependent luciferase reporter). The conditions noted are these: 10 ng/ml rMuTNF. On the technique in general: A reporter such as luciferase makes a cellular process visible.
Data set [11] can be described thus: Metabolite profile in hepatocytes / in vivo.
From the text: Metabolites are identified using high-resolution mass spectrometry.
For the next data set, the system named is MV4-11 cell line. The data set can be described thus: Growth inhibition (GI50) of AML cell lines. Type of data set: cell-based. The following applies: Homo sapiens, MV4-11; pMEF2C-positive; read-out: GI50 against MV4-11 cell line.
The test system of data set [12] is NFKB activity in PANC-1 cells. The data set can be described thus: TNF-induced NFKB activity (NFKB-dependent luciferase reporter). The conditions noted are these: 10 ng/ml rHuTNF, PANC-1 reporter cells.
In data set [13] the test system is SIK3 WT and KO MC38 clones. The data set can be described thus: TNF-mediated killing of SIK3 wildtype vs SIK3 knockout MC38 clones (CTG). The data set is classed as cell-based, mouse. The following applies: sub-optimal TNF (<10 ng/ml), 72 h.
Method: The assay was performed as follows: MC38 SIK3 KO clones were generated using CRISPR. Cells were transfected with RNP complexes (Cas9+gRNA) containing gRNAS targeting SIK3 or non-targeting sequences (control). […] Subsequently, single cell clones were generated by limiting dilution. CRISPR-derived mutations in single clones were detected by next-generation sequencing and analysed using CRISPResso. Knockout and wildtype clones were selected and plated overnight. […] Cells treated with different concentrations of inhibitor but without TNF served as no TNF control. Cell viability was measured by CTG assay.
A short description of a further data set: in vivo. The conditions noted are these: male, CD1, mouse, po, 30 mg/kg.
The next data set concerns the target MDR1 (P-gp) (Homo sapiens (Human), UniProt P08183). The data set can be described thus: MDR1-MDCK effective efflux assay. The conditions noted are these: dog; for efflux ratio: Table 5.1B.
Data set [14] concerns the target MDR1 pump (P-gp), MDCK-MDR1 cells (Homo sapiens (Human), UniProt P08183). The data set can be described thus: MDR1-MDCK effective efflux assay. The following applies: Table 5.1B.
Data set [15] can be described thus: in vitro. The conditions noted are these: human, microsomes.
Data set [16] in a line: Mouse hepatocyte stability. Type of data set: in vitro ADME. The following applies: hepatocytes.
Data set [17] can be described thus: Murine plasma protein binding.
The conditions of data set [18]: in vivo, po, 30 mg/kg.
Data set [19] deals with HDAC4 phosphorylation in PANC-1 cells. Description: HDAC4 phosphorylation (Meso Scale Discovery assay). The conditions noted are these: 10 ng/mL rHuTNF, 3 h.
Another data set has as its target CSF1R (Homo sapiens (Human), UniProt P07333). The data set is classed as biochemical. The following applies: Kinase Profiler.
The nature of data set [20]: Screening PK in mice after 30 mg/kg po.
The test system of data set [21] is MC38 colorectal carcinoma tumours. Description: MC38 syngeneic mouse tumour model (Example 8.1). The conditions noted are these: MC38; 40 mg/Kg, BID po.
Data set [22] is described as follows: in vitro. The conditions noted are these: mouse, microsomes.
A further data set concerns KASUMI-1 cell line. Description: Growth inhibition (GI50) of AML cell lines. Type of data set: cell-based. The conditions noted are these: Homo sapiens, Kasumi 1; pMEF2C-positive; read-out: GI50 against KASUMI-1 cell line.
In a further data set the target is HCK (Homo sapiens (Human), UniProt P08631). Type of data set: biochemical. The conditions noted are these: Kinase Profiler.
The mark [23] stands for this setting: total plasma concentration at 30 mg/kg p.o dose, fold of C7 (C7 = 1×).

Chain of CSF1R (P07333 20-972 limits assumed): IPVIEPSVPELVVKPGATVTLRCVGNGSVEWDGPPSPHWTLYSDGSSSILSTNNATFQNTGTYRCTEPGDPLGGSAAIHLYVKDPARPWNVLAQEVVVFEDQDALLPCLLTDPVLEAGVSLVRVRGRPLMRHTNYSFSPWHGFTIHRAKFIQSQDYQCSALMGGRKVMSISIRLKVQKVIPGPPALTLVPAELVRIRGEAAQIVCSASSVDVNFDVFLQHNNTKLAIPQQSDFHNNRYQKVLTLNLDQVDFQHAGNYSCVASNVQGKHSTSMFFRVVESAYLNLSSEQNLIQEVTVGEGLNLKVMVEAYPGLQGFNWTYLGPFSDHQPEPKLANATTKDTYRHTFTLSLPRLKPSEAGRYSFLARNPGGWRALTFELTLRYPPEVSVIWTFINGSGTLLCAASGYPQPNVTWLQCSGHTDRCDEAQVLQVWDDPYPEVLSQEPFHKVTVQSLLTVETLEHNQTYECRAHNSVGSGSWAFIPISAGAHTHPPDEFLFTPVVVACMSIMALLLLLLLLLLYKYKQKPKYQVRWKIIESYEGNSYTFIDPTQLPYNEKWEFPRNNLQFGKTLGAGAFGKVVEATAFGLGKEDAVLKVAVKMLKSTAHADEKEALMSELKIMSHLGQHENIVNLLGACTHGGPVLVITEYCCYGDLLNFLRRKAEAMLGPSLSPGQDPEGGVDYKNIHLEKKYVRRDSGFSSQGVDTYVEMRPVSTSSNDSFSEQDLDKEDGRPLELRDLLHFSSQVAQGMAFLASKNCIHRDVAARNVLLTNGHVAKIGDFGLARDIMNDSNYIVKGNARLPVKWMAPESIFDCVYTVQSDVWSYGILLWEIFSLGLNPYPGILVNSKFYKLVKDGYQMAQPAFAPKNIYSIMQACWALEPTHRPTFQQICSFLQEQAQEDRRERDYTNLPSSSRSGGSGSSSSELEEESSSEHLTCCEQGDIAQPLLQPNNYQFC
Chain of ABL1 wt (P00519 118-535 limits assumed): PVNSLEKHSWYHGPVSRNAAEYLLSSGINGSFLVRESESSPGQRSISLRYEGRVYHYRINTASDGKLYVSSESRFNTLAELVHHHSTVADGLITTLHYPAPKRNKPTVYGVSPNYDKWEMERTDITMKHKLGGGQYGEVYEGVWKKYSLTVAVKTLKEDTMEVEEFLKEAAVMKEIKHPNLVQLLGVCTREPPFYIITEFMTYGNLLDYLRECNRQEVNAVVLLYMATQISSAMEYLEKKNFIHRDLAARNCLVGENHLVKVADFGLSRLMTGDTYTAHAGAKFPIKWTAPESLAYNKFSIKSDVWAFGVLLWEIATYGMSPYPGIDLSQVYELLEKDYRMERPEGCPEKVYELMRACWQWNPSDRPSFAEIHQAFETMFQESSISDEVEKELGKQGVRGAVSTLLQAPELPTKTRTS

Turning to `Cc1nc(Nc2ncc(C(=O)Nc3c(C(F)F)csc3Cl)s2)cc(N2CCN(C)C(C)C2)n1` (racemic) [Compound E16, N-(2-chloro-4-(difluoromethyl)thiophen-3-yl)-2-((2-methyl-6-(3,4-dimethylpiperazin-1-yl)pyrimidin-4-yl)amino)thiazole-5-carboxamide], the IC50 in the data set on PANC1 cells was below 100 nM; in data set [1], below 100 nM; against SIK3 [2], 20 to 50 nM; at SIK2 [3], below 20 nM; in the data set with HCT116 cells, below 100 nM.
With `Cc1nc(Nc2ncc(C(=O)Nc3c(Cl)ccnc3C)s2)cc(N2CCN(C)CC2)n1` [Compound C10], the IC50 is 4.3 nM against ABL1 wt, below 1.5 nM at SRC (GST-HIS-tag), 138 nM at SIK2 [4] and 493 nM at SIK3 [5] (read-out: SIK3 IC50).
Take `Cc1nc(Nc2ncc(C(=O)Nc3c(C(F)F)csc3Cl)s2)cc(N2CCN(CCO)CC2)n1` [Compound E4, N-(2-chloro-4-(difluoromethyl)thiophen-3-yl)-2-((6-(4-(2-hydroxyethyl)piperazin-1-yl)-2-methylpyrimidin-4-yl)amino)thiazole-5-carboxamide]: in data set [6], the “DLT@BID dosing” value lay in the range of 60 to 80 mg/kg, the “DLT@QD dosing” value was “n.d. @80 mg/kg”, the “HRD in vivo @BID” value is 33 mg/kg and the “HRD in vivo @QD” value is 80 mg/kg. Besides, the half-life in data set [7] (read-out: Human hepatocyte stability, Half-life) stood at 1.07 h. Besides, the microsomal CLint in data set [7] (read-out: Human hepatocyte stability, Intrinsic clearance) was found to be 22 µL/min/mg. In addition, in data set [7] (read-out: half-life in the presence of human hepatocytes (converted)), the half-life was around 1 h. The “Human plasma-protein binding, Percentage unbound (%)” value in data set [8] (Table 5.1A) is on record as below 1%. The compound further yielded a recovery at 4 h in data set [8] (human, plasma) of 77%. In [9], the Papp is 5 ×10⁻⁶ cm/s and the efflux ratio came to 4.1. The “Inhibition of NFKB activity (MC38)” value in data set [10] is listed as “++”. In addition, the quinone-imine reactive metabolite entry in [11] was “not observed”. Also, in the data set with MV4-11 cell line, the GI50 is below 750 nM. In addition, the “Inhibition of NFKB activity (PANC-1)” value in data set [12] was “++”. In addition, in [13], the “TNF-mediated killing in SIK3 WT vs KO MC38 clones” value was “induced TNF-mediated killing only in SIK3 WT clones”. Further, in “in vivo”, the AUC(0-inf) was 5.5 µM·h, the AUC(0-t) was 5.48 µM·h, the Cmax was found to be 1240 ng/mL and the MRT last is 5.88 h. Further, in “in vivo”, the Tmax is 2 h and the half-life is 4.49 h. Also, the Papp on MDR1 (P-gp) (MDCK-MDR1) stood at 3 ×10⁻⁶ cm/s. The efflux ratio on MDR1 (P-gp) (MDCK-MDR1, MDCK-MDR1 cells, Mean Efflux Ratio (MDR1)) is 40 to 50. Moreover, the efflux ratio on MDR1 (P-gp) (MDCK-MDR1, P-gP driven efflux ratio (MDR1/wt)) was 11. Further, the “MDCK-MDR1 cells, Mean Efflux Ratio (MDR1)” value in data set [14] amounted to 43. For the same compound, the IC50 in [1] was below 100 nM. For the same compound, the EC50 in data set [1] (MC-38, read-out: mean EC50 of sensitising MC38 tumour cells to TNF-mediated killing) is below 100 nM. Also, in the data set “in vitro [15]”, the half-life worked out at 0.367 h and the microsomal CLint was found to be 65 µL/min/mg. This compound registered a half-life in [16] of 1.3 h. The microsomal CLint in data set [16] (read-out: Mouse hepatocyte stability, Intrinsic clearance) is 18 µL/min/mg. Besides, in [17] (Table 5.1A), the “Murine plasma protein binding, Percentage unbound (%)” value is 2%. Moreover, the recovery at 4 h in data set [17] (mouse, plasma) amounted to 80%. In data set [18] (male, CD1, mouse), the “% AUCextrap, Free” value turned out to be 0.31%; the “% AUCextrap, Total” value was 0.31%; the “AUCinf (nM*h), Free” value was found to be 148.39 nM·h; the “AUClast (nM*h), Free” value turned out to be 147.93 nM·h. In addition, in data set [18] (mouse), the “Rsq, Free” value is 0.90 and the “Rsq, Total” value was found to be 0.90. At SIK3 [2] (read-out: Kinase: IC50 (nM) SIK3), the IC50 was below 20 nM. In addition, the “Inhibition of HDAC4 phosphorylation” value in data set [19] was “++”. Also, at CSF1R, the CSF1R residual activity entry is “less than 1%”. Besides, the IC50 at SIK2 [3] is below 20 nM. In [20] (mice, 30 mg/kg po, 6 h), the “fold increase of concentration at 6 h compared to dasatinib” value came to 3 fold. In data set [20] (mouse, in vivo), the “fold improvement of free serum concentration over C7” value came out at 5 fold and the “fold improvement of total serum concentration over C7” value was 9.6 fold. In addition, the highest level in data set [20] (mouse, plasma, po, 30 mg/kg) (Cmax at 2 h) was 1210 ng/mL. The compound also gave a concentration at 6 h in data set [20] (mouse, plasma, po, 30 mg/kg, Free plasma concentration after 6 h (nM), mice, 30 mg/kg po, 6 h) of 17.9 nM. The concentration at 6 h in data set [20] (mouse, plasma, po, 30 mg/kg, Plasma concentration after 6 h (nM), mice, 30 mg/kg po, 6 h) came to 662 nM. Moreover, in data set [20] (setting [23]), the “AUC0-last (nM*h), relative to C7” value amounted to 4.7×; the “C max (ng/ml), relative to C7” value is listed as 2.6×; the “MRT0-last (h), relative to C7” value was determined as 2×; the “t1/2 (h), relative to C7” value is on record as 3.2×. Moreover, in [21], the “Body weight increase (%)” value came to 12.0%, the Non-treatment related death is 3/16 and the “Tumour growth inhibition (%)” value is listed as 64%. In the data set “in vitro [22]”, this compound gave a half-life of 0.333 h and a microsomal CLint of 70 µL/min/mg. In the data set with KASUMI-1 cell line, the GI50 is below 7.5 nM. In the data set with HCT116 cells, the IC50 is below 100 nM. Further, the “SIK3 IC50 (nM), relative to C7” value at SIK3 [5] (fold of the value of compound C7 (C7 = 1×)) is 0.6×. Besides, the HCK residual activity result at HCK was “less than 1%”.

For orientation: half-life means how long it takes for the measured level to halve. Broadly, the Papp is the rate of passage across a membrane or cell layer, normalised by area and donor concentration. Lower therefore signals slow passage. A word on the efflux ratio: it is a quotient of directional permeabilities that is used to spot active efflux. One may read the GI50 as the concentration that inhibits growth by half. The AUC(0-inf) is total exposure, with the tail of the curve extrapolated. A high value points to high exposure. In general, AUC(0-t) refers to exposure summed from dosing to a finite time, without extrapolation to infinity. Read a high AUC(0-t) as more exposure. A word on the Cmax: it is the peak of the concentration-time curve. What is called MRT last is the average time that molecules of a dose stay in the body. For orientation: Tmax means the time at which the peak concentration occurs. As a reminder, the EC50 is the concentration at which the effect is half-maximal.
